According to patent US20170172955A1, “Treatment of Mixed Dyslipidemia” (priority 2015, published 2017):
Like-named read-outs stand apart in the source and are kept apart here.

Tests used:
CYP2C9 = CYP2C9 (Homo sapiens, UniProt P11712); assay: biochemical
Procedure: (§1) Human livers, HLM141, HLM143, and HLM144 were selected from the University of Washington Human Liver Bank for this study. […] The actual concentrations used for each of the other probes are specified below. […] The seven isoforms and the metabolic pathway of each of the probes used to monitor specific isoform activity are listed below.
CYP2C9: The 7-hydroxylation of (S)-warfarin (4 μM). The reaction is monitored by quantitative GC/MS using 7-hydroxywarfarin-(d5-phenyl) as the internal standard.

CYP3A4 = CYP3A4 (Homo sapiens, UniProt P08684); assay: biochemical
Procedure: as §1
CYP3A4: The 10-hydroxylation of (R)-warfarin (0.5 mM). The reaction is monitored by quantitative GC/MS using 10-hydroxywarfarin-(d5-phenyl) as the internal standard.

plasma fibrinogen = assay: Fibrinogen levels in rats (electro immunoassay); format: in vivo, rat; details: male Sprague-Dawley rats
Procedure: Fifty-Six male Sprague-Dawley rats were obtained from Charles River Laboratories. All animals were allowed normal rat chow (Ralston-Purina) and water ad libitum in temperature-controlled rooms, under a 12-hour light, 12-hour dark cycle beginning with lights on at 6 AM. Rats were distributed to 7 groups of 8 rats per group. […] Control animals received vehicle alone. […] CI-719 is gemfibrozil. […] The plasma fibrinogen plasma levels were determined by electro immunoassay. […] Data are shown in FIG. 12 as mean±SEM of as percent of control fibrinogen levels. *p<0.001, two-sided unpaired t-test, compared to control.

CYP3A4, sequence (P08684 whole entry): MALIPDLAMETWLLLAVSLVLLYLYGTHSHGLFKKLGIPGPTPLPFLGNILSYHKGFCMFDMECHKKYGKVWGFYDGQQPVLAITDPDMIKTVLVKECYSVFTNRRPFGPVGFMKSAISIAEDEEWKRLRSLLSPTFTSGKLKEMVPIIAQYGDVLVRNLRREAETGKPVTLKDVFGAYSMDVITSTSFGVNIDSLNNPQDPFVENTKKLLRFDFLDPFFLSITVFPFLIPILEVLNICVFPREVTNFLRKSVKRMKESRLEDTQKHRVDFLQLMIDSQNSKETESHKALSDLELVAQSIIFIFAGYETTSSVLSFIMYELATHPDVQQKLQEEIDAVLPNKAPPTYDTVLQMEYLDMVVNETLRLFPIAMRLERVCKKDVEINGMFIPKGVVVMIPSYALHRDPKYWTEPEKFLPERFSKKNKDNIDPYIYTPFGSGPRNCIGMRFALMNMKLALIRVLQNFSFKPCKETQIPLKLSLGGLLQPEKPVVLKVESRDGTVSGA
CYP2C9, sequence (P11712 whole entry, canonical isoform): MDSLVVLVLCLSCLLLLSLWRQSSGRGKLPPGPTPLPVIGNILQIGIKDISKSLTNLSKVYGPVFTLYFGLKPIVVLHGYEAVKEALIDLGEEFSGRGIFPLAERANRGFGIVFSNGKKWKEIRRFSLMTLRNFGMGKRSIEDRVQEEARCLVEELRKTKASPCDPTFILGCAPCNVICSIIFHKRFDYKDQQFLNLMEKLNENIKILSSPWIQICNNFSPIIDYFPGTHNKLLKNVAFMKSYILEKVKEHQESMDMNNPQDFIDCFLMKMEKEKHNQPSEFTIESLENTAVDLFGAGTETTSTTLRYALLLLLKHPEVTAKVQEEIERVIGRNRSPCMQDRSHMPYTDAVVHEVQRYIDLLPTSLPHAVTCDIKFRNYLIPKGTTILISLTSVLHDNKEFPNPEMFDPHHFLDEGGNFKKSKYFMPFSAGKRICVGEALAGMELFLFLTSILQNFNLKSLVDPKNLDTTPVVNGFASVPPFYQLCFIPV

IC50 (CYP2C9): > 1500 µM | IC50 (CYP2C9; human, microsomes): > 1500 µM | IC50 (CYP3A4): > 1500 µM | IC50 (CYP3A4; human, microsomes): > 1500 µM
SMILES: CC(C)(CCCCOCCCCC(C)(C)C(=O)O)C(=O)O [Gemcabene, 6,6′-oxybis(2,2-dimethylhexanoic acid)]
reduction in plasma fibrinogen levels compared with control (plasma fibrinogen; 30 mg/kg/day oral, 14 days): 52% | reduction in plasma fibrinogen levels compared with control (plasma fibrinogen; 100 mg/kg/day oral, 14 days (PD 72953)): 57%
